Experimental data as given in patent publication US20250052751A1, “COMPOSITIONS AND METHODS FOR DIAGNOSING AUTOIMMUNE AQUAPORINOPATHY” (The Regents of the University of California, priority 2023, published 2025).
Entries after “also recorded” stand apart in the source; their conditions may differ.

Legend:
[1] = biological target: T1, MHC class II I-A^b molecules (Mus musculus, UniProt P14434+P14483); test: I-A^b affinity assay (competitive binding against a radiolabeled high-affinity peptide); settings: purified I-A^b; for peptide binding affinity for I-A^b: unlabeled peptide vs radiolabeled high-affinity competitor peptide
T1 construct: made in house
T1 sequence (P14434 24-256): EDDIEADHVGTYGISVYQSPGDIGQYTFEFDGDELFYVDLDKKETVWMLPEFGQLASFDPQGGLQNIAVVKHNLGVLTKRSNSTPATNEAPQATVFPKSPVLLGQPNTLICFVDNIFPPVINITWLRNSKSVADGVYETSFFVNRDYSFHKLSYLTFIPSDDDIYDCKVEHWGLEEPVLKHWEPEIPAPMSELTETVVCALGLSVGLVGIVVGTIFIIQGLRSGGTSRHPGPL
T1 sequence (P14483 28-265): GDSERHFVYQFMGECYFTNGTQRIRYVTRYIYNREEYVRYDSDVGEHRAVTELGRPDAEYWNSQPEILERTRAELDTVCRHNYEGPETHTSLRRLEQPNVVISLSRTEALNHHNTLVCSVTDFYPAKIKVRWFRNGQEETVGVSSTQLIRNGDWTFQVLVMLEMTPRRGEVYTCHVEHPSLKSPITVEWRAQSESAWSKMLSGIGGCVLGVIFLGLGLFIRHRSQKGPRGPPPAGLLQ
Method: (§1) FIGS. 2A-2F. Pathogenic AQP4 determinants bind I-A^b with high affinity and elicit proliferation of AQP4: I-A^b-specific TCR-bearing T cells in AQP4-deficient mice. (FIG. 2A) WT or AQP4^−/− mice were immunized s.c. with peptides indicated. Peptide-specific proliferation of draining lymph node cells was measured by 3H-thymidine incorporation (mean±SEM, representative of five experiments). (FIG. 2B) Lymph node cells from AQP4 immunized WT or AQP4^−/− mice were cultured for 3 days with cognate antigen under Th17 polarizing conditions. AQP4 p133-149- and p202-218-specific Th17 cells from AQP4/donors induce paralysis in WT recipient mice. (FIG. 2C) IEDB, an in silico method for predicting determinants within proteins that bind MHC alleles, was used to identify AQP4 amino acid sequences anticipated to bind I-A^b for recognition by AQP4-specific/I-A^b-restricted CD4^+ T cells. 1/IC50 is plotted against the first amino acid for each overlapping AQP4 15 mer. Peaks correspond to increased predicted binding affinity. (FIG. 2D) Purified I-A^b molecules were tested biochemically for peptide binding affinity using a competitive binding assay between a radiolabeled high-affinity competitor peptide and unlabeled peptides (22). Lower IC50 values indicate higher binding affinity. Boxed amino acids designate the core binding regions. (FIGS. 2E-2F) Lymph node T cells isolated from WT or AQP4−/− mice immunized with AQP4 p133-149 or p202-218 were stained with I-A^b:p133-149 and […] tetramers, bead-enriched and analyzed by flow cytometry. […] Each data point represents one mouse. ****p<0.0001 (Mann Whitney U test).
Both AQP4 p133-149 and p202-218 are predicted to bind MHC II (I-A^b) with high affinity according to the Immune Epitope Database (IEDB) (FIG. 2C), an in silico method for predicting determinants within proteins that bind allele-specific MHC molecules for presentation to T cells (21). We have now examined AQP4 peptide affinity for I-A^b biochemically. I-A^b molecules that were purified by affinity chromatography were tested in a competitive binding assay between a radiolabeled high-affinity competitor peptide and unlabeled peptides (22). Indeed, peptides containing the two pathogenic AQP4 T cell determinants bound I-A^b with higher affinity than the nonpathogenic AQP4 p24-35 T cell epitope or MOG p35-55 (FIG. 2D).
I-A^b affinity Assay. Purification of MHC class II I-A^b molecules by affinity chromatography, and the performance of assays based on the inhibition of binding of a high affinity radiolabeled peptide to quantitatively measure peptide binding, were performed as described (22). Lower IC50 values indicate higher binding affinity. Excellent binders have affinities less than 100 nM and good binders have affinities less than 1000 nM.

[2] = test system: draining lymph node cells; test: Proliferation assay, ^3H-thymidine incorporation after s.c. peptide immunization; format: cell-based, mouse
Method: as §1
FIGS. 4A-4B. Negative selection of AQP4 p133-149-reactive T cells is bypassed partially in mice deficient in thymic AQP4 expression. (FIG. 4A) AQP4^−/− WT, Foxn1cre-AQP4^fl/fl, Aire^−/−, or Foxn1cre-Fezf2^fl/fl mice were immunized s.c. with peptides indicated. Peptide-specific proliferation of draining lymph node cells was measured by 3H-thymidine incorporation (mean±SEM, representative of five experiments). Comparisons within the five experiments for p133-149 at […]: WT vs. AQP4^−/− (p=0.008), WT vs. Foxn1cre-AQP4^fl/fl (p=0.008). (FIG. 4B) Ten days after peptide immunization, CD4^+ T cells from draining lymph nodes were analyzed for I-A^b: peptide tetramer binding by flow cytometry. Each data point represents the frequency (mean±SEM) of CD4^+ T cells bound to cognate antigen-tetramer in a single mouse. […] For p133-149: WT vs. Aire^−/− (p=0.9), WT vs. Foxn1cre-Fezf2^fl/fl (p=0.3). For p202-218: WT vs. Foxn1cre-AQP4^fl/fl (p=0.3), WT vs. Aire^−/− (p=0.06).
Proliferation assays. Mice were immunized subcutaneously (s.c.) with 100 μg of AQP4, MOG or IRBP peptide in CFA containing 400 μg M. tuberculosis H37Ra (Difco Laboratories). Lymph nodes were harvested on day 10-12 and cultured at 2×10^5/well with various concentrations of peptide in triplicate wells for 72 hours. […] of ^3H-thymidine was added 18 hours prior to cell harvest, and data are presented as counts per minute (CPM). Stimulation Index (SI) was calculated by dividing CPM in wells with Ag by CPM in wells with no antigen controls of each assay test group.

[3] = test system: Foxn1cre-AQP4^fl/fl mice; test: CNS autoimmunity by direct peptide immunization; format: in vivo, mouse
[4] = AQP4^−/− mice immunized with the peptide
[5] = Aire^−/− mice immunized with the peptide
[6] = Foxn1cre-AQP4^fl/fl mice immunized with the peptide
[7] = WT mice immunized with the peptide

LYLVTPPSVVGGLGVT [AQP4 p133-149]
peptide binding affinity for I-A^b [1]: bound I-A^b avidly
peptide-specific proliferation of draining lymph node cells [2, 4]: robust proliferative T cell responses
peptide-specific proliferation of draining lymph node cells ([2]; AQP4^−/− mice immunized with the peptide, listed as p133-149): robust proliferative responses
peptide-specific proliferation of draining lymph node cells [2, 5]: little or no proliferation
peptide-specific proliferation of draining lymph node cells [2, 6]: induced proliferation in Foxn1cre-AQP4^fl/fl mice, but not to the same level as in AQP4^−/− mice
peptide-specific proliferation of draining lymph node cells ([2]; Foxn1cre-Fezf2^fl/fl mice immunized with the peptide): little or no proliferation
peptide-specific proliferation of draining lymph node cells [2, 7]: little or no proliferation
CNS autoimmunity by immunization [3]: resistant to CNS autoimmunity

LFAINYTGASMNPARSF [AQP4 p202-218]
I-A^b binding affinity relative to MOG p35-55 ([1]; competitive binding assay): more than ten times greater affinity than MOG p35-55
peptide binding affinity for I-A^b [1]: highest affinity among peptides examined in this report
peptide binding affinity for I-A^b ([1]; listed as p202-218): bound I-A^b avidly
peptide-specific proliferation of draining lymph node cells [2, 4]: robust proliferative responses; also recorded: strong proliferation
peptide-specific proliferation of draining lymph node cells [2, 5]: no significant responses
peptide-specific proliferation of draining lymph node cells [2, 6]: only marginal responses
peptide-specific proliferation of draining lymph node cells [2, 7]: no significant responses
